{"source": "the supplement of paper PMC10307832", "assay_in_all_cases": "relative viability (nuclei count vs DMSO), 5 days (fraction); higher = more cells survive", "key": {"A-427": {"tested_on": "A-427", "procedure,_shortened": "(§1)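 Cells from lung cancer lines were seeded into 1536-well plates and, one day later, dosed by pin tool. Treatments were either a single drug or a fixed dose of an anchor drug with five library-drug doses (not always all listed) in √10 steps. After 5 days, nuclei were stained in a one-step fixation (final 0.05% Triton X-100, 1% formaldehyde, 1 ug/ml Hoechst) and counted on 4× images, and relative viability is the treated-to-vehicle nuclei ratio, as the median of duplicate plates.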"}, "ChaGo-K-1": {"tested_on": "ChaGo-K-1", "procedure,_shortened": "as §1"}, "EKVX": {"tested_on": "EKVX", "procedure,_shortened": "as §1"}, "H3255": {"tested_on": "H3255", "procedure,_shortened": "as §1"}, "LK-2": {"tested_on": "LK-2", "procedure,_shortened": "as §1"}, "NCI-H1355": {"tested_on": "NCI-H1355", "procedure,_shortened": "as §1"}, "NCI-H1650": {"tested_on": "NCI-H1650", "procedure,_shortened": "as §1"}, "NCI-H1666": {"tested_on": "NCI-H1666", "procedure,_shortened": "as §1"}, "NCI-H1755": {"tested_on": "NCI-H1755", "procedure,_shortened": "as §1"}, "NCI-H1944": {"tested_on": "NCI-H1944", "procedure,_shortened": "as §1"}, "NCI-H2085": {"tested_on": "NCI-H2085", "procedure,_shortened": "as §1"}, "NCI-H2228": {"tested_on": "NCI-H2228", "procedure,_shortened": "as §1"}}}
{"smiles": "O=C(O)CCCCC(CCSCc1ccccc1)SCc1ccccc1", "note": "(stereo unspecified) [CPI-613] + Cc1nc(Nc2ncc(C(=O)Nc3c(C)cccc3Cl)s2)cc(N2CCN(CCO)CC2)n1 [Dasatinib] (partner 0.075 µM)", "values": [{"measurement": "relative viability", "setting": "A-427; first compound 5 µM", "result": 0.684}, {"measurement": "relative viability", "setting": "A-427; first compound 15.81 µM", "result": 0.765}, {"measurement": "relative viability", "setting": "A-427; first compound 50 µM", "result": 0.547}, {"measurement": "relative viability", "setting": "A-427; first compound 158.11 µM", "result": 0.365}, {"measurement": "relative viability", "setting": "A-427; first compound 500 µM", "result": 0.131}, {"measurement": "relative viability", "setting": "ChaGo-K-1; first compound 5 µM", "result": 0.583}, {"measurement": "relative viability", "setting": "ChaGo-K-1; first compound 15.81 µM", "result": 0.594}, {"measurement": "relative viability", "setting": "ChaGo-K-1; first compound 50 µM", "result": 0.594}, {"measurement": "relative viability", "setting": "ChaGo-K-1; first compound 158.11 µM", "result": 0.336}, {"measurement": "relative viability", "setting": "ChaGo-K-1; first compound 500 µM", "result": 0.146}, {"measurement": "relative viability", "setting": "EKVX; first compound 5 µM", "result": 0.561}, {"measurement": "relative viability", "setting": "EKVX; first compound 15.81 µM", "result": 0.482}, {"measurement": "relative viability", "setting": "EKVX; first compound 50 µM", "result": 0.565}, {"measurement": "relative viability", "setting": "EKVX; first compound 158.11 µM", "result": 0.466}, {"measurement": "relative viability", "setting": "EKVX; first compound 500 µM", "result": 0.517}, {"measurement": "relative viability", "setting": "H3255; first compound 5 µM", "result": 0.408}, {"measurement": "relative viability", "setting": "H3255; first compound 15.81 µM", "result": 0.307}, {"measurement": "relative viability", "setting": "H3255; first compound 50 µM", "result": 0.346}, {"measurement": "relative viability", "setting": "H3255; first compound 500 µM", "result": 0.335}, {"measurement": "relative viability", "setting": "LK-2; first compound 5 µM", "result": 0.241}, {"measurement": "relative viability", "setting": "LK-2; first compound 15.81 µM", "result": 0.279}, {"measurement": "relative viability", "setting": "LK-2; first compound 50 µM", "result": 0.252}, {"measurement": "relative viability", "setting": "LK-2; first compound 158.11 µM", "result": 0.254}, {"measurement": "relative viability", "setting": "LK-2; first compound 500 µM", "result": 0.195}, {"measurement": "relative viability", "setting": "NCI-H1355; first compound 5 µM", "result": 0.682}, {"measurement": "relative viability", "setting": "NCI-H1355; first compound 15.81 µM", "result": 0.697}, {"measurement": "relative viability", "setting": "NCI-H1355; first compound 50 µM", "result": 0.701}, {"measurement": "relative viability", "setting": "NCI-H1355; first compound 158.11 µM", "result": 0.53}, {"measurement": "relative viability", "setting": "NCI-H1355; first compound 500 µM", "result": 0.375}, {"measurement": "relative viability", "setting": "NCI-H1650; first compound 5 µM", "result": 0.353}, {"measurement": "relative viability", "setting": "NCI-H1650; first compound 15.81 µM", "result": 0.285}, {"measurement": "relative viability", "setting": "NCI-H1650; first compound 50 µM", "result": 0.312}, {"measurement": "relative viability", "setting": "NCI-H1650; first compound 158.11 µM", "result": 0.082}, {"measurement": "relative viability", "setting": "NCI-H1650; first compound 500 µM", "result": 0.0164}, {"measurement": "relative viability", "setting": "NCI-H1666; first compound 5 µM", "result": 0.808}, {"measurement": "relative viability", "setting": "NCI-H1666; first compound 15.81 µM", "result": 0.858}, {"measurement": "relative viability", "setting": "NCI-H1666; first compound 50 µM", "result": 0.749}, {"measurement": "relative viability", "setting": "NCI-H1666; first compound 158.11 µM", "result": 0.386}, {"measurement": "relative viability", "setting": "NCI-H1666; first compound 500 µM", "result": 0.18}, {"measurement": "relative viability", "setting": "NCI-H1755; first compound 5 µM", "result": 0.406}, {"measurement": "relative viability", "setting": "NCI-H1755; first compound 15.81 µM", "result": 0.41}, {"measurement": "relative viability", "setting": "NCI-H1755; first compound 50 µM", "result": 0.446}, {"measurement": "relative viability", "setting": "NCI-H1755; first compound 158.11 µM", "result": 0.464}, {"measurement": "relative viability", "setting": "NCI-H1755; first compound 500 µM", "result": 0.225}, {"measurement": "relative viability", "setting": "NCI-H1944; first compound 5 µM", "result": 0.212}, {"measurement": "relative viability", "setting": "NCI-H1944; first compound 15.81 µM", "result": 0.219}, {"measurement": "relative viability", "setting": "NCI-H1944; first compound 50 µM", "result": 0.188}, {"measurement": "relative viability", "setting": "NCI-H1944; first compound 158.11 µM", "result": 0.19}, {"measurement": "relative viability", "setting": "NCI-H1944; first compound 500 µM", "result": 0.0792}, {"measurement": "relative viability", "setting": "NCI-H2085; first compound 5 µM", "result": 0.267}, {"measurement": "relative viability", "setting": "NCI-H2085; first compound 15.81 µM", "result": 0.266}, {"measurement": "relative viability", "setting": "NCI-H2085; first compound 50 µM", "result": 0.255}, {"measurement": "relative viability", "setting": "NCI-H2085; first compound 158.11 µM", "result": 0.242}, {"measurement": "relative viability", "setting": "NCI-H2085; first compound 500 µM", "result": 0.257}, {"measurement": "relative viability", "setting": "NCI-H2228; first compound 5 µM", "result": 0.559}, {"measurement": "relative viability", "setting": "NCI-H2228; first compound 15.81 µM", "result": 0.469}]}
